Source: ChEMBL document CHEMBL4725339, “Discovery of USP7 small-molecule allosteric inhibitors” (Bioorg Med Chem Lett, 2020)
Active and inactive are the calls of the source. The rule behind the calls is not given here.

What was measured:
Homo sapiens [1] = organism: Homo sapiens; test: Selectivity index, ratio of IC50 for USP47 (unknown origin) to IC50 for recombinant full length USP7 (unknown origin) using di-ubiquitin as substrate by fluorescence based assay
[2] = target: T1, Ubiquitin carboxyl-terminal hydrolase 1 (Homo sapiens, UniProt O94782); test: Inhibition of USP1 (unknown origin)
T1 sequence (O94782 whole entry): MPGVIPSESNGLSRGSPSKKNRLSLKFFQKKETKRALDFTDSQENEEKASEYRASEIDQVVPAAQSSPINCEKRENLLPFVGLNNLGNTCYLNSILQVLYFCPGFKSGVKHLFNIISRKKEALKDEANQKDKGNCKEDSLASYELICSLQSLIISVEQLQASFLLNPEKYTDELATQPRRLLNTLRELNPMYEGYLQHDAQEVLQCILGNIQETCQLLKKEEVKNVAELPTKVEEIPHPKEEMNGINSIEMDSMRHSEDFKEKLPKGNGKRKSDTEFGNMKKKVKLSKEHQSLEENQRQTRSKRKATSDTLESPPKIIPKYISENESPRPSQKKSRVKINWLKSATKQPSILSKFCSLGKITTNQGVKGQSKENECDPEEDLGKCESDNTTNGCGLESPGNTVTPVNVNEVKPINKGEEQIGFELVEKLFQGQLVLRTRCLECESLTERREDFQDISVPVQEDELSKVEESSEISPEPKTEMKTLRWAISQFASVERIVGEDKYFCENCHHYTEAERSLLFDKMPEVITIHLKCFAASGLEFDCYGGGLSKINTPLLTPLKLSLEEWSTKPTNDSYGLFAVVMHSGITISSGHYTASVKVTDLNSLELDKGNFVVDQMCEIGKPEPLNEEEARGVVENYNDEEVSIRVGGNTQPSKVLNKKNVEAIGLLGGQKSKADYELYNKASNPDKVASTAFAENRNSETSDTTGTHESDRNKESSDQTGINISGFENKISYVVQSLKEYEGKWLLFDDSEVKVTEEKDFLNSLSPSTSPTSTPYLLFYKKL

[3] = target: Ubiquitin carboxyl-terminal hydrolase 14 (Homo sapiens, UniProt P54578); test: Inhibition of USP14 (unknown origin)
Homo sapiens [4] = organism: Homo sapiens; test: Selectivity index, ratio of IC50 for USP14 (unknown origin) to IC50 for recombinant full length USP7 (unknown origin) using di-ubiquitin as substrate by fluorescence based assay
[5] = target: T2, Ubiquitin carboxyl-terminal hydrolase 47 (Homo sapiens, UniProt Q96K76); test: Inhibition of USP47 (unknown origin)
T2 sequence (Q96K76 whole entry): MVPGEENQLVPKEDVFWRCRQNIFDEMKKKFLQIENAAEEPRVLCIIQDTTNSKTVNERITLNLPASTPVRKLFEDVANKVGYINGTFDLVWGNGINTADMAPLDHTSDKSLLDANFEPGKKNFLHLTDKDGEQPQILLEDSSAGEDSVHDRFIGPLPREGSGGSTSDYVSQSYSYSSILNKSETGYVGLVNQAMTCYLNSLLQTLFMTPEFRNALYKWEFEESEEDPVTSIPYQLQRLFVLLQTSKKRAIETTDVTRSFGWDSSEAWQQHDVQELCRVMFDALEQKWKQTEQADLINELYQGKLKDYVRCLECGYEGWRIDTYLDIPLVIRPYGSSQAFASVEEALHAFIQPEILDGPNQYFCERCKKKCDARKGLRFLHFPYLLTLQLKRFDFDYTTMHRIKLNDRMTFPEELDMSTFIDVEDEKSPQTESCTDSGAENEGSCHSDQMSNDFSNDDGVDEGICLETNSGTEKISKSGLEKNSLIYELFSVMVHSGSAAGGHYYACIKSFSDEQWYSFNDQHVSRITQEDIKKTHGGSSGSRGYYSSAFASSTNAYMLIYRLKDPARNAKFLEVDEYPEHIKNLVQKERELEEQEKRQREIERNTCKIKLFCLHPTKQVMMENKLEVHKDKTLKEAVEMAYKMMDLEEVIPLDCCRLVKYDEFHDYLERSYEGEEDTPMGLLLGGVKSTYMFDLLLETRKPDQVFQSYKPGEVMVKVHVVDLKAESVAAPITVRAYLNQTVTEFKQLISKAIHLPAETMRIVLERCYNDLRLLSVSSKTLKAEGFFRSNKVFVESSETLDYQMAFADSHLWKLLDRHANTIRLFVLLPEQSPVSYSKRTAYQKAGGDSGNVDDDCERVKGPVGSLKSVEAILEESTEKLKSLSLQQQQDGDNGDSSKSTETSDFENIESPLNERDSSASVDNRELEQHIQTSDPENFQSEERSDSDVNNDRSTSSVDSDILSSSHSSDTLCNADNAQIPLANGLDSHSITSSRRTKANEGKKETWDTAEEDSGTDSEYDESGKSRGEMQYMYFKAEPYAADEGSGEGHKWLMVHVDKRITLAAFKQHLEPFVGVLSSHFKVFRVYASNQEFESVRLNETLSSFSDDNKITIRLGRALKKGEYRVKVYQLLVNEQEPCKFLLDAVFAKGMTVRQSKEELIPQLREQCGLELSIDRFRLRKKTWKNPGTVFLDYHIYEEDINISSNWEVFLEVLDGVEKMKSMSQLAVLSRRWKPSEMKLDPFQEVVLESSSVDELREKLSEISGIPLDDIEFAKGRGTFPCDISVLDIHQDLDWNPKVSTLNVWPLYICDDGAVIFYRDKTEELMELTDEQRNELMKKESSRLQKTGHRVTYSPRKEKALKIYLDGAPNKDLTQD

Homo sapiens [6] = organism: Homo sapiens; test: Selectivity index, ratio of IC50 for USP1 (unknown origin) to IC50 for recombinant full length USP7 (unknown origin) using di-ubiquitin as substrate by fluorescence based assay
[7] = target: T3, Ubiquitin carboxyl-terminal hydrolase 7 (Homo sapiens, UniProt Q93009); test: Inhibition of recombinant full length USP7 (unknown origin) using di-ubiquitin as substrate by fluorescence based assay
Target sequence in this assay (Q93009 whole entry): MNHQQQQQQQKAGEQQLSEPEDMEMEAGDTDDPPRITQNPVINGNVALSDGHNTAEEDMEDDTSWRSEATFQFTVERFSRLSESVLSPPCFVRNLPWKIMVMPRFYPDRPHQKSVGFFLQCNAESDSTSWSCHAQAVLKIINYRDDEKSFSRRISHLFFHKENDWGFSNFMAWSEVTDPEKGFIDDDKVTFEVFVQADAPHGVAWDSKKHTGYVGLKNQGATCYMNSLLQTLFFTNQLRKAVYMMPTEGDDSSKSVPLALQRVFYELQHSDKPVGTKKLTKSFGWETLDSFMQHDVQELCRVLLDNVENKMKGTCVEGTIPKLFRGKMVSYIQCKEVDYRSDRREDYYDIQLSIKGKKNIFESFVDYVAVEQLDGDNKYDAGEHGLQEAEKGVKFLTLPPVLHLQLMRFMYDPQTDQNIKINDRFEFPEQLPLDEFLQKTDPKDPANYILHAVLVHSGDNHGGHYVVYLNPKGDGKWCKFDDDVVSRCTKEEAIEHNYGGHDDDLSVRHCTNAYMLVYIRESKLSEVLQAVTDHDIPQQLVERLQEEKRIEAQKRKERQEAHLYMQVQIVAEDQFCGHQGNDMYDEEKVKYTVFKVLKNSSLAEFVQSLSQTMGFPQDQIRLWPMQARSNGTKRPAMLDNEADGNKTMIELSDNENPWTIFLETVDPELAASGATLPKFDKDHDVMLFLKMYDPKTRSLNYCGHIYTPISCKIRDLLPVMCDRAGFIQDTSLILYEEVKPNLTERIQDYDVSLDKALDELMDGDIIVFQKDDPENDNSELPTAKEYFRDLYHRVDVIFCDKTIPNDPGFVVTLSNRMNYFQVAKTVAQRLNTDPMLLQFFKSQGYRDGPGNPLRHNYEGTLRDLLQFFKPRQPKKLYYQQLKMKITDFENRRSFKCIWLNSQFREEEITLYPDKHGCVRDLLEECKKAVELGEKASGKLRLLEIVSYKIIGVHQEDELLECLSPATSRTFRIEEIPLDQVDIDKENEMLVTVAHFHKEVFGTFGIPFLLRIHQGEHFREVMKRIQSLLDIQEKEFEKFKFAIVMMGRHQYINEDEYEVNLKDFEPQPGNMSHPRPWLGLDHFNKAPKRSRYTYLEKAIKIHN

[8] = target: T3, Ubiquitin carboxyl-terminal hydrolase 7; test: Inhibition of recombinant human C-terminal His-tagged N-terminal GST-tagged full length USP7 using di-ubiquitin as substrate preincubated for 10 mins followed by substrate addition and measured after 60 mins by TR-FRET assay
Target sequence in this assay (Q93009 whole entry): as above

[9] = target: T3, Ubiquitin carboxyl-terminal hydrolase 7; test: Inhibition of recombinant human His-tagged USP7 (208 to 560 residues) expressed in Hi-five Sf9 cells using monoubiquitinated ubiquitin-rhodamine as substrate incubated for 1 hr by fluorescence based assay
Target sequence in this assay (Q93009 whole entry): as above

[10] = target: T3, Ubiquitin carboxyl-terminal hydrolase 7; test: Allosteric binding affinity to USP7 catalytic domain (unknown origin) at Met328 residues by NMR-15N-1H TROSY spectral titration analysis
Target sequence in this assay (Q93009 whole entry): as above

[11] = target: T3, Ubiquitin carboxyl-terminal hydrolase 7; test: Binding affinity to USP7 (unknown origin) by T2 relaxation experiment based analysis
Target sequence in this assay (Q93009 whole entry): as above

[12] = target: T3, Ubiquitin carboxyl-terminal hydrolase 7; test: Binding affinity to USP7 (unknown origin) by 1H-NMR-STD analysis
Target sequence in this assay (Q93009 whole entry, looked up): as the sequence (Q93009 whole entry) above

[13] = target: T3, Ubiquitin carboxyl-terminal hydrolase 7; test: Binding affinity to USP7 (unknown origin) by 1H-1H-NOESY experiment based analysis
Target sequence in this assay (Q93009 whole entry, looked up): as the sequence (Q93009 whole entry) above

[14] = Aqueous solubility of compound; assay type: physicochemical; settings: water (aqueous)
[15] = target: T3, Ubiquitin carboxyl-terminal hydrolase 7; test: Allosteric binding affinity to USP7 catalytic domain (unknown origin) at Met328, Trp285, Gly284, Gln405 and Gly313 residues by NMR-15N-1H TROSY spectral titration analysis
Target sequence in this assay (Q93009 whole entry): as above

[16] = target: T3, Ubiquitin carboxyl-terminal hydrolase 7; test: Allosteric binding affinity to USP7 catalytic domain (unknown origin) at His403, Gln351, Leu304, Ser353, Met328, Trp285 and Gly284 residues at 1.12 mM by NMR-15N-1H TROSY spectral titration analysis
Target sequence in this assay (Q93009 whole entry, looked up): as the sequence (Q93009 whole entry) above

Ubiquitin carboxyl-terminal hydrolase 14, sequence (P54578 whole entry): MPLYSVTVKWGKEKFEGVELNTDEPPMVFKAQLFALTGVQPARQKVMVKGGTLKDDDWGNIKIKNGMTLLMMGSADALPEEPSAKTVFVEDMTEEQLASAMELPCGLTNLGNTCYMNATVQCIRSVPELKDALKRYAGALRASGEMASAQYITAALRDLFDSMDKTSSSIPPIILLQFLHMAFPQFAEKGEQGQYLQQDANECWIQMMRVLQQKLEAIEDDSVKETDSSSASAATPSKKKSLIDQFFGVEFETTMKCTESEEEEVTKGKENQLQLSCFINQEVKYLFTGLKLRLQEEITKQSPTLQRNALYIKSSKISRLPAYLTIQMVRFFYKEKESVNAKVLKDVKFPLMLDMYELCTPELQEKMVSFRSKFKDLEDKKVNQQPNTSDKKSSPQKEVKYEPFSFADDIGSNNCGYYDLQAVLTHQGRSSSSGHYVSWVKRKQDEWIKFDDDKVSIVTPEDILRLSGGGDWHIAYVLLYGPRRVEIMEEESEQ

Row | Ratio IC50 (Homo sapiens [1]) | IC50 [2] [µM] | IC50 [3] [µM] | Ratio IC50 (Homo sapiens [4]) | IC50 [5] [µM] | Ratio IC50 (Homo sapiens [6]) | IC50 [7] [µM] | IC50 [8] [nM] | IC50 [9] [nM] | Kd [10] [µM] | Kd [11] [µM] | Activity [12] | solubility [14] [µM] | Kd [15] [µM] | Activity [16] | SMILES | Activity [13]
1 | > 2 | > 100 | > 100 | > 2 | > 100 | > 2 | 27 | – | – | – | – | – | – | – | – | Cc1ccn2c(-c3ccc(O)cc3)c(N)nc2c1 | –
2 | > 2 | > 100 | > 100 | > 2 | > 100 | > 2 | 8.8 | – | – | – | – | – | – | – | – | Cc1cccn2c(-c3ccc(O)cc3)c(N)nc12 | –
3 | > 2 | > 100 | > 100 | > 2 | > 100 | > 2 | 7.9 | – | – | – | – | – | – | – | – | CC(C)Nc1nc2ccccn2c1-c1ccc(O)cc1 | –
4 | > 2 | > 100 | > 100 | > 2 | > 100 | > 2 | 16 | – | – | – | – | – | – | – | – | CNc1nc2ccccn2c1-c1ccc(O)cc1 | –
5 | > 2 | > 100 | > 100 | > 2 | > 100 | > 2 | 5.3 | – | – | – | – | – | – | – | – | Nc1nc2cc(C3CCNCC3)ccn2c1-c1ccc(O)cc1 | –
6 | > 2 | > 100 | > 100 | > 2 | > 100 | > 2 | 48 | – | – | – | – | – | – | – | – | Nc1nc2ccc(C(F)(F)F)cn2c1-c1ccc(O)cc1 | –
7 | – | – | – | – | – | – | – | 1300 | – | – | – | – | – | – | – | CCc1c(-c2ccc(C(=O)NC)nc2)cnc(N)c1-c1ccc(O)cc1 | –
8 | > 2 | > 100 | > 100 | > 2 | > 100 | > 2 | 38 | – | – | – | – | – | – | – | – | COc1ccc(-c2c(N)nc3ccccn23)cc1 | –
9 | > 2 | > 100 | > 100 | > 2 | > 100 | > 2 | 24 | – | – | – | – | – | – | – | – | CN(C)c1nc2ccccn2c1-c1ccc(O)cc1 | –
10 | > 2 | > 100 | > 100 | > 2 | > 100 | > 2 | 26 | – | – | – | – | – | – | – | – | Nc1nc2c(C(F)(F)F)cccn2c1-c1ccc(O)cc1 | –
11 | > 2 | > 100 | > 100 | > 2 | > 100 | > 2 | 42 | – | – | – | – | – | – | – | – | Nc1nc2cc(C(F)(F)F)ccn2c1-c1ccc(O)cc1 | –
12 | – | – | – | – | – | – | – | – | 52 | – | – | – | – | – | – | O=C(C[C@@H](C(F)F)n1ccc(F)n1)N1CCC(O)(Cn2cnc3c(cnn3-c3ccc(F)cc3)c2=O)CC1 | –
13 | > 2 | > 100 | > 100 | > 2 | > 100 | > 2 | 24 | – | – | – | – | – | – | – | – | Nc1nc2ccccn2c1-c1ccc(O)cc1 | –
14 | > 2 | > 100 | > 100 | > 2 | > 100 | > 2 | 39 | – | – | – | – | – | – | – | – | Cc1ccc2nc(N)c(-c3ccc(O)cc3)n2c1 | –
15 | – | > 100 | > 100 | – | > 100 | – | 34 | – | – | 580 | 540 | Active | > 800 | 680 | Active | CC(=O)Nc1nc2ccccn2c1-c1ccc(O)cc1 | Active
